The assay relates to BDF1 mice, P388 leukemia ip, median survival T/C. In words: NCI In Vivo Anticancer Drug Screen. Data for tumor model P388 Leukemia (intraperitoneal) in B6D2F1 (BDF1) mice. To be noted: endpoint: median survival time, higher = longer survival. In outline: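 Reported as T/C, where T is the survival measurement in dosed animals and C the same measurement in vehicle controls.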
Where [1] appears, read: dose: 50.0 mg/kg/injection, schedule: Q04DX003 (ip), vehicle: saline with Tween-80.
[2] abbreviates: dose: 100.0 mg/kg/injection, schedule: Q04DX003 (ip), vehicle: saline with Tween-80.
Where [3] appears, read: dose: 200.0 mg/kg/injection, schedule: Q04DX003 (ip), vehicle: saline with Tween-80.
[4] abbreviates: dose: 50.0 mg/kg/injection, schedule: Q01DX009 (ip), vehicle: saline with Tween-80.
The mark [5] stands for this setting: dose: 100.0 mg/kg/injection, schedule: Q01DX009 (ip), vehicle: saline with Tween-80.
Where [6] appears, read: dose: 200.0 mg/kg/injection, schedule: Q01DX009 (ip), vehicle: saline with Tween-80.
Setting [7] is: dose: 25.0 mg/kg/injection, schedule: Q04DX003 (ip), vehicle: saline with Tween-80.
[8] abbreviates: dose: 25.0 mg/kg/injection, schedule: Q04DX003 (ip), vehicle: Klucel (hydroxypropylcellulose) (HPC).

In PubChem BioAssay AID328 (DTP/NCI, 2004) one finds T/C data, which are given here for 14 compounds.

Several values for one entry are separate records, joined by “and”; a condition that tells them apart may be missing. Equal values may be shown once. Inconclusive results and toxic doses are left out.

Turning to `Nc1nc(N)c2cc(N3CCCC3c3ccc(Cl)c(Cl)c3)ccc2n1` (stereo unspecified), the T/C was 110 % of control (dose: 0.78 mg/kg/injection, schedule: Q01DX009 (ip), vehicle: water); 117 % of control (dose: 1.56 mg/kg/injection, schedule: Q01DX009 (ip), vehicle: water); 113 % of control (dose: 3.12 mg/kg/injection, schedule: Q01DX009 (ip), vehicle: water); 104 % of control and 109 % of control (dose: 3.12 mg/kg/injection, schedule: Q04DX003 (ip), vehicle: water); 119 % of control (dose: 6.25 mg/kg/injection, schedule: Q01DX009 (ip), vehicle: water); 110 % of control and 116 % of control (dose: 6.25 mg/kg/injection, schedule: Q04DX003 (ip), vehicle: water). The T/C reads like this: (dose: 12.5 mg/kg/injection, schedule: Q04DX003 (ip), vehicle: water) 108 % of control and 114 % of control; (dose: 20.0 mg/kg/injection, schedule: Q04DX003 (ip), vehicle: water) 111 % of control; (dose: 25.0 mg/kg/injection, schedule: Q04DX003 (ip), vehicle: water) 116 % of control.

`COc1cc2ccc3c[n+]4ccccc4cc3c2cc1OC`: the T/C is, setting by setting: (dose: 25.0 mg/kg/injection, schedule: Q01DX009 (ip), vehicle: Klucel (hydroxypropylcellulose) (HPC)) 102 % of control; (dose: 25.0 mg/kg/injection, schedule: Q01DX009 (ip), vehicle: saline) 112 % of control; (dose: 50.0 mg/kg/injection, schedule: Q01DX009 (ip), vehicle: Klucel (hydroxypropylcellulose) (HPC)) 116 % of control; (dose: 50.0 mg/kg/injection, schedule: Q01DX009 (ip), vehicle: saline) 117 % of control; (dose: 100.0 mg/kg/injection, schedule: Q01DX009 (ip), vehicle: saline) 114 % of control; (dose: 150.0 mg/kg/injection, schedule: Q01DX009 (ip), vehicle: Klucel (hydroxypropylcellulose) (HPC)) 118 % of control.

Regarding `COCC(O)CCl` (stereo unspecified), the T/C reads like this: under setting [1], 100 % of control; under setting [2], 100 % of control and 110 % of control; under setting [3], 100 % of control and 110 % of control.

Regarding `N/N=C(/c1ccccc1)c1nc(-c2ccccc2)n[nH]c1=O`, the T/C is, setting by setting: under setting [4], 111 % of control; under setting [5], 106 % of control; under setting [6], 112 % of control.

`Nc1ccc(S(=O)(=O)Nc2ccc([N+](=O)[O-])cc2)cc1`: the T/C runs as follows: (dose: 12.5 mg/kg/injection, schedule: Q01DX009 (ip), vehicle: saline with Tween-80) 87 % of control; (dose: 25.0 mg/kg/injection, schedule: Q01DX009 (ip), vehicle: saline with Tween-80) 96 % of control and 105 % of control; under setting [7], 102 % of control; under setting [4], 89 % of control; under setting [1], 99 % of control; under setting [5], 87 % of control and 93 % of control. The T/C under setting [2] was 105 % of control; the T/C under setting [3] was 112 % of control; the T/C (dose: 400.0 mg/kg/injection, schedule: Q04DX003 (ip), vehicle: saline with Tween-80) is 114 % of control.

With `NC(=S)N/N=C/c1ccc(O)cn1`, the T/C by setting is: (dose: 18.8 mg/kg/injection, schedule: Q01DX009 (ip), vehicle: saline with Tween-80) 189 % of control; (dose: 25.0 mg/kg/injection, schedule: Q01DX001 (ip), vehicle: Klucel (hydroxypropylcellulose) (HPC)) 100 % of control and 109 % of control; (dose: 25.0 mg/kg/injection, schedule: Q01DX010 (ip), vehicle: saline) 172 % of control; (dose: 25.0 mg/kg/injection, schedule: Q04DX002 (ip), vehicle: Klucel (hydroxypropylcellulose) (HPC)) 103 % of control; under setting [8], 122 % of control; (dose: 37.5 mg/kg/injection, schedule: Q01DX009 (ip), vehicle: saline with Tween-80) 219 % of control. Besides, the T/C is 200 % of control (dose: 50.0 mg/kg/injection, schedule: Q01DX010 (ip), vehicle: saline); 178 % of control (dose: 75.0 mg/kg/injection, schedule: Q01DX009 (ip), vehicle: saline with Tween-80); 227 % of control (dose: 100.0 mg/kg/injection, schedule: Q01DX010 (ip), vehicle: saline); 100 % of control (dose: 200.0 mg/kg/injection, schedule: Q01DX010 (ip), vehicle: saline).

For `ClC(Cl)=C1OCCO1`, the T/C runs as follows: under setting [4], 104 % of control; under setting [5], 98 % of control; under setting [6], 100 % of control.

On to `ClC1=NC(Cl)C(Cl)=N/C1=N\c1ncn[nH]1` (stereo unspecified), for which the T/C by setting is: (dose: 6.25 mg/kg/injection, schedule: Q01DX009 (ip), vehicle: saline with Tween-80) 110 % of control; (dose: 22.0 mg/kg/injection, schedule: Q04DX003 (ip), vehicle: saline with Tween-80) 113 % of control; under setting [1], 118 % of control; (dose: 75.0 mg/kg/injection, schedule: Q04DX003 (ip), vehicle: saline with Tween-80) 90 % of control.

Regarding `C=C1C(=O)OC2/C=C(\C)CC(O)/C=C(\C)CC(OC(=O)/C(=C\C)COC(C)=O)C12` (stereo unspecified), the T/C is 122 % of control (dose: 20.0 mg/kg/injection, schedule: Q01DX009 (ip), vehicle: saline); 150 % of control (dose: 44.0 mg/kg/injection, schedule: Q01DX009 (ip), vehicle: saline); 122 % of control (dose: 66.0 mg/kg/injection, schedule: Q01DX009 (ip), vehicle: saline).

On to `Cn1c2nc3ccccc3c-2nc2ccccc21`, for which the T/C is, setting by setting: (dose: 12.5 mg/kg/injection, schedule: Q04DX003 (ip), vehicle: Klucel (hydroxypropylcellulose) (HPC)) 94 % of control; under setting [8], 98 % of control; (dose: 50.0 mg/kg/injection, schedule: Q04DX003 (ip), vehicle: Klucel (hydroxypropylcellulose) (HPC)) 103 % of control; (dose: 100.0 mg/kg/injection, schedule: Q04DX003 (ip), vehicle: Klucel (hydroxypropylcellulose) (HPC)) 101 % of control; (dose: 200.0 mg/kg/injection, schedule: Q04DX003 (ip), vehicle: Klucel (hydroxypropylcellulose) (HPC)) 116 % of control.

Consider `NC(N)=NC(N)=Nc1ccc(S(=O)(=O)O)cc1`, for which the T/C is, setting by setting: under setting [5], 103 % of control; under setting [6], 97 % of control; (dose: 400.0 mg/kg/injection, schedule: Q01DX009 (ip), vehicle: saline with Tween-80) 94 % of control.

As for `CC(=O)OCc1c(C)nc2sccn12`, the T/C is, setting by setting: (dose: 12.5 mg/kg/injection, schedule: Q01DX001 (ip), vehicle: saline) 102 % of control; (dose: 25.0 mg/kg/injection, schedule: Q01DX001 (ip), vehicle: saline) 92 % of control; (dose: 50.0 mg/kg/injection, schedule: Q01DX001 (ip), vehicle: saline) 96 % of control.

`COC1CCC2=C(C1)C(=O)CC1c3ccccc3CN21` (stereo unspecified): the T/C runs as follows: under setting [7], 100 % of control; under setting [1], 104 % of control.

As to `C=CCNC(=O)C12CC3CC(CC(C3)C1)C2`, the T/C reads like this: under setting [4], 93 % of control; under setting [5], 99 % of control; under setting [6], 103 % of control.
